From patent US20230028441A1, “NOVEL HETEROARYL-TRIAZOLE COMPOUNDS AS PESTICIDES” (Bayer Aktiengesellschaft, priority 2019, published 2023)

Experiments:
Assay type in all cases: in vivo
[1] = system: fall armyworm larvae (Spodoptera frugiperda); experiment: Spodoptera frugiperda spray test (maize leaf sections); conditions: 168 h
Method: Solvent: 78.0 parts by weight acetone • 1.5 parts by weight dimethylformamide
(§1) Emulsifier: alkylarylpolyglycol ether
To produce a suitable preparation of active compound, 1 part by weight of active compound is mixed with the stated amount of solvents and is diluted with water, containing an emulsifier concentration of 1000 ppm, to the desired concentration. Further test concentrations are prepared by dilution with emulsifier containing water.
Maize (Zea mays) leaf sections are sprayed with a preparation of the active ingredient of the desired concentration. Once dry, the leaf sections are infested with fall armyworm larvae (Spodoptera frugiperda).
After 7 days mortality in % is determined. 100% means all caterpillars have been killed and 0% means none of the caterpillars have been killed.

[2] = system: larvae of the southern green stink bug (Nezara viridula); experiment: Nezara viridula spray test; conditions: in Hordeum vulgare, 96 h
Method: (§2) Solvent: 78.0 parts by weight of acetone • • 1.5 parts by weight of dimethylformamide
as §1
(§3) To produce a suitable preparation of active compound, 1 part by weight of active compound is mixed with the stated amount of solvent, and the concentrate is diluted with water, containing an emulsifier concentration of 1000 ppm, to the desired concentration. Further test concentrations are prepared by dilution with emulsifier containing water.
Barley plants (Hordeum vulgare) infested with larvae of the southern green stink bug (Nezara viridula) are sprayed with a test solution containing the desired concentration of the active ingredient.
After 4 days mortality in % is determined. 100% means all the stink bugs have been killed; 0% means none of the stink bugs have been killed.

[3] = system: larvae of the banded cucumber beetle (Diabrotica balteata); experiment: Diabrotica balteata spray test; conditions: 168 h, after 7 days, wheat seeds, read-out: efficacy (seedlings grown up); for pest or weed control at 32 µg/disc, 100 g/ha: 100 g/ha (=32 μg/well); for pest or weed control at 160 µg/disc, 500 g/ha: 500 g/ha (=160 μg/well)
Method: as §2, §1, §3
Soaked wheat seeds (Triticum aestivum) are placed in a multiple well plate filled with agar and some water and are incubated for 1 day to germinate (5 seeds per well). The germinated wheat seeds are sprayed with a test solution containing the desired concentration of the active ingredient. Afterwards each unit is infected with 10-20 larvae of the banded cucumber beetle (Diabrotica balteata).
After 7 days efficacy in % is determined. 100% means all the seedlings have grown up like in the untreated, uninfected control; 0% means none of the seedlings have grown.

[4] = system: adult engorged female ticks (Rhipicephalus microplus); experiment: Rhipicephalus (Boophilus) microplus injection test; conditions: 168 h, egg deposition after 7 days, read-out: efficacy (infertile eggs); for pest or weed control at 0.004 mg: 4 μg/animal; for pest or weed control at 0.02 mg: 20 μg/animal
Method: Solvent: dimethyl sulfoxide
To produce a suitable preparation of active compound, 10 mg of active compound are dissolved in 0.5 mL solvent, and the concentrate is diluted with solvent to the desired concentration.
Five adult engorged female ticks (Rhipicephalus microplus) are injected with 1 μL compound solution into the abdomen. The ticks are transferred into replica plates and incubated in a climate chamber.
After 7 days egg deposition of fertile eggs is monitored. Eggs where fertility is not visible are stored in a climate chamber till hatching after about 42 days. An efficacy of 100% means all eggs are infertile; 0% means all eggs are fertile.

| Structure (SMILES) | mortality at 100 g/ha [1] | mortality at 500 g/ha [2] | pest or weed control at 32 µg/disc, 100 g/ha [3] | other results |
| --- | --- | --- | --- | --- |
| CNc1nc([C@H](C)NC(=O)c2cc(OC(F)(F)F)cc(S(C)(=O)=O)c2)n(-c2ncc(C#N)s2)n1 [I-212] | 100% |  |  |  |
| CC(NC(=O)c1cc(OC(F)(F)F)cc(S(=O)(=O)C2CC2)c1)c1nc(N(C)C)nn1-c1ncc(Cl)cn1 (stereo not shown) [I-193] | 100% | 100% | 100% |  |
| CC(NC(=O)c1cc(C(F)(F)F)cc(C(F)(F)F)c1)c1nc(Cc2c(F)cccc2F)nn1-c1ncccn1 (stereo not shown) [I-086] |  |  | 100% |  |
| CSc1nc(C(C)NC(=O)c2cc(OC(F)(F)F)cc(S(C)(=O)=O)c2)n(-c2ncc(C#N)s2)n1 (stereo not shown) [I-167, N-{1-[1-(5-cyano-1,3-thiazol-2-yl)-3-(methylsulfanyl)-1H-1,2,4-triazol-5-yl]ethyl}-3-(methylsulfonyl)-5-(trifluoromethoxy)benzamide] | 100% | 100% | 100% |  |
| CC(NC(=O)c1cc(Cl)cc(S(C)(=O)=O)c1)c1nc(N(C)C)nn1-c1ccc(C#N)cn1 (stereo not shown) [I-157] |  | 90% |  |  |
| CC(NC(=O)c1cc(Cl)cc(S(C)(=O)=O)c1)c1nc(N(C)C)nn1-c1ncc(Cl)cn1 (stereo not shown) [I-171] | 100% | 100% |  |  |
| CC(NC(=O)c1cc(C(F)(F)F)cc(C(F)(F)F)c1)c1nc(N(C)C)nn1-c1ccc(C#N)cn1 (stereo not shown) [I-162] | 100% | 100% | 100% |  |
| C[C@H](NC(=O)c1cc(C(F)(F)F)cc(C(F)(F)F)c1)c1nc(N2CCOCC2)nn1-c1ncc(C#N)s1 [I-199] |  |  | 100% |  |
| CC(NC(=O)c1cc(Cl)cc(S(C)(=O)=O)c1)c1nc(SCC(F)(F)F)nn1-c1ccc(Cl)cn1 (stereo not shown) [I-065] |  |  |  | pest or weed control at 0.004 mg [4]: 100%; pest or weed control at 0.02 mg [4]: 100% |
| CCS(=O)(=O)c1cc(OC(F)(F)F)cc(C(=O)NC(C)c2nc(N(C)C)nn2-c2ncc(Cl)cn2)c1 (stereo not shown) [I-194] | 100% | 100% | 100% |  |
| CC(NC(=O)c1cc(OC(F)(F)F)cc(C2CC2)c1)c1nc(N(C)C)nn1-c1ccc(C#N)cn1 (stereo not shown) [I-164] | 100% | 100% | 100% |  |
| C[C@H](NC(=O)c1cc(Br)cc(C(F)(F)F)c1)c1nc(N)nn1-c1ccc(C#N)cn1 [I-172] | 100% |  | 100% |  |
| CC(NC(=O)c1cc(OC(F)(F)F)cc(C2CC2)c1)c1nc(N2CCCCC2)nn1-c1ncccn1 (stereo not shown) [I-196] |  | 90% |  |  |
| C[C@H](NC(=O)c1cc(OC(F)(F)F)cc(C2CC2)c1)c1nc(N2CCOCC2)nn1-c1ncc(C#N)s1 [I-197] |  |  | 100% |  |
| CC(NC(=O)c1cc(C(F)(F)F)cc(C(F)(F)F)c1)c1nc(NC(=O)OC(C)(C)C)nn1-c1ccc(C#N)cn1 (stereo not shown) [I-096] |  |  |  | pest or weed control at 0.004 mg [4]: 100% |
| CC(NC(=O)c1cc(OC(F)(F)F)cc(C2CC2)c1)c1nc(N(C)C)nn1-c1ncc(Cl)cn1 (stereo not shown) [I-166] | 100% | 100% | 100% |  |
| CC(NC(=O)c1cc(Cl)cc(C(F)(F)F)c1)c1nc(NC(=O)OC(C)(C)C)nn1-c1ncccn1 (racemic) [I-001, tert-butyl N-[5-[1-[[3-chloro-5-(trifluoromethyl)benzoyl]amino]ethyl]-1-pyrimidin-2-yl-1,2,4-triazol-3-yl]carbamate] |  |  |  | pest or weed control at 0.004 mg [4]: 100%; pest or weed control at 0.02 mg [4]: 100%; mortality at 500 g/ha [1]: 100%; pest or weed control at 160 µg/disc, 500 g/ha [3]: 100% |
| CON(C)c1nc([C@H](C)NC(=O)c2cc(Br)cc(Br)c2)n(-c2ncccn2)n1 [I-150] | 100% |  | 100% |  |
| CC(NC(=O)c1cc(Cl)cc(C(F)(F)F)c1)c1nc([S+]([O-])CC(F)(F)F)nn1-c1ccc(Cl)cn1 (stereo not shown) [I-068] |  |  |  | pest or weed control at 0.004 mg [4]: 80%; pest or weed control at 0.02 mg [4]: 100% |

| Structure (SMILES) | mortality at 100 g/ha [1] | mortality at 500 g/ha [2] | pest or weed control at 32 µg/disc, 100 g/ha [3] | other results |
| --- | --- | --- | --- | --- |
| CC(NC(=O)c1cc(Cl)cc(S(C)(=O)=O)c1)c1nc(N2CCCCC2)nn1-c1ncccn1 (stereo not shown) [I-198] |  |  | 80% |  |
| CNc1nc([C@H](C)NC(=O)c2cc(Br)cc(Br)c2)n(-c2ncc(C#N)s2)n1 [I-210] | 100% |  |  |  |
| CC(NC(=O)c1cc(Cl)cc(S(C)(=O)=O)c1)c1nc(N(S(C)(=O)=O)S(C)(=O)=O)nn1-c1ccc(Cl)cn1 (racemic) [I-026, N-[1-[5-[bis(methylsulfonyl)amino]-2-(5-chloro-2-pyridyl)-1,2,4-triazol-3-yl]ethyl]-3-chloro-5-methylsulfonyl-benzamide] |  | 90% |  | pest or weed control at 0.004 mg [4]: 100%; pest or weed control at 0.02 mg [4]: 100%; pest or weed control at 160 µg/disc, 500 g/ha [3]: 100% |
| CC(NC(=O)c1cc(Cl)cc(C(C)(C)C#N)c1)c1nc(N(C)C)nn1-c1ccc(C#N)cn1 (stereo not shown) [I-156] | 100% | 100% | 100% |  |
| CNc1nc([C@H](C)NC(=O)c2cc(C(F)(F)F)cc(C(F)(F)F)c2)n(-c2ncc(C#N)s2)n1 [I-208] | 100% |  |  |  |
| CC(NC(=O)c1cc(Br)cc(C(F)(F)F)c1)c1nc(NC(=O)OC(C)(C)C)nn1-c1ccc(C#N)cn1 (stereo not shown) [I-102] |  |  |  | pest or weed control at 0.004 mg [4]: 100% |
| CC(NC(=O)c1cc(Br)cc(Br)c1)c1nc(NC(=O)OC(C)(C)C)nn1-c1ccc(C#N)cn1 (stereo not shown) [I-098] |  |  |  | pest or weed control at 0.004 mg [4]: 100% |
| C[C@H](NC(=O)c1cc(C(F)(F)F)cc(C(F)(F)F)c1)c1nc(N2CCCC2)nn1-c1ncccn1 [I-190] | 100% | 100% | 100% |  |
| CNc1nc([C@H](C)NC(=O)c2cc(OC(F)(F)F)cc(C3CC3)c2)n(-c2ncc(C#N)s2)n1 [I-206] | 100% |  |  |  |
| CC(NC(=O)c1cc(Cl)cc(S(C)(=O)=O)c1)c1nc(-c2ncccn2)nn1-c1ncccn1 (stereo not shown) [I-052] |  |  |  | pest or weed control at 0.004 mg [4]: 100%; pest or weed control at 0.02 mg [4]: 100% |
| C[C@H](NC(=O)c1cc(OC(F)(F)F)cc(C2CC2)c1)c1nc(N2CCCC2)nn1-c1ncccn1 [I-203] | 100% | 100% | 100% |  |
| CC(NC(=O)c1cc(Cl)cc(C(F)(F)F)c1)c1nc(SCC(F)(F)F)nn1-c1ccc(Cl)cn1 (stereo not shown) [I-067] |  |  |  | pest or weed control at 0.02 mg [4]: 100% |
| CNc1nc([C@H](C)NC(=O)c2cc(Br)cc(OC(F)(F)F)c2)n(-c2ncc(C#N)s2)n1 [I-209] | 100% |  |  |  |
| CC(NC(=O)c1cc(Cl)cc(S(C)(=O)=O)c1)c1nc(Cc2ccccc2)nn1-c1ncccn1 (stereo not shown) [I-084] |  |  |  | mortality at 100 g/ha [2]: 90% |
| C[C@H](NC(=O)c1cc(Cl)cc(C(C)(C)C#N)c1)c1nc(N2CCOCC2)nn1-c1ccc(C#N)cn1 [I-204] | 100% | 100% |  |  |
| CC(NC(=O)c1cc(Cl)cc(C(F)(F)F)c1)c1nc(-c2ccc(Cl)nc2)nn1-c1ncccn1 (stereo not shown) [I-043] |  |  |  | pest or weed control at 0.004 mg [4]: 80% |
| CC(NC(=O)c1cc(Cl)cc(S(C)(=O)=O)c1)c1nc(NC(=O)OC(C)(C)C)nn1-c1ccc(Cl)cn1 (stereo not shown) [I-002] |  |  |  | pest or weed control at 0.004 mg [4]: 100%; pest or weed control at 0.02 mg [4]: 100% |
| CC(NC(=O)c1cc(OC(F)(F)F)cc(S(=O)(=O)C(C)C)c1)c1nc(N(C)C)nn1-c1ncc(Cl)cn1 (stereo not shown) [I-191] |  | 90% | 100% |  |
